Measured values reported in US11040028B2, “Penicinotam derivative, preparation method and use thereof” (OCEAN UNIVERSITY OF CHINA, priority 2017, dated 2021).

Key:
Assay type in all cases: cell-based
[1] = tested on: cardiac fibroblast RAT-iCell-C002; experiment: Anti-fibrosis activity test: inhibition of proliferation of cardiac fibroblast RAT-iCell-C002 (CCK-8); details: Cardiac fibroblast, 48 h
Summary of the method: (§1)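 After one day of adherence at 37° C in 5% CO2, cells (seeded at 2×10^4 cells/mL) received the compounds for two days in triplicate. Inhibition of proliferation was quantified with CCK-8 at 450 nm, with IC50 calculated from IR = (1−Ai/Ao)×100%.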

BHK-21 cells = experiment: Anti-fibrosis activity test: inhibition of BHK-21 cell proliferation (CCK-8); details: Mesocricetus auratus, BHK-21, 48 h
Summary of the method: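 Cells plated 2×10^4 cells/mL; 24 h attach; compound dilutions, triplicate, 48 h, 37° C/5% CO2; CCK-8 2 h; A450; IR = (1−Ai/Ao)×100%; IC50 by curve fit.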

NF-κB = experiment: Immunological activity test: inhibition of NF-κB activity; details: initial concentration of 30 μM; a/b isomers given as first/second symbol; read-out: IC50 (μM), inhibitory activity against NF-κB
Summary of the method: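 IC50 values were derived after initial screening of compounds at 30 μM for NF-κB inhibitory activity, with parthenolide serving as the positive control.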

[2] = tested on: human lung fibroblasts HFL1; experiment: Anti-fibrosis activity test: inhibition of proliferation of human lung fibroblasts HFL1 (CCK-8); details: Homo sapiens, HFL1, 48 h
Summary of the method: as §1

[3] = tested on: human embryonic lung fibroblast IMR-90; experiment: Anti-fibrosis activity test: inhibition of proliferation of human embryonic lung fibroblast IMR-90 (CCK-8)
Summary of the method: as §1

[4] = tested on: human dermal fibroblasts CCC-ESF-1; experiment: Anti-fibrosis activity test: inhibition of proliferation of human dermal fibroblasts CCC-ESF-1 (CCK-8); details: Fibroblast
Summary of the method: as §1

[5] = tested on: mouse macrophages (RAW264.7); experiment: Lipopolysaccharide-induced NO secretion in macrophages (Griess); details: Mus musculus, RAW264.7, 24 h, RAW264.7, LPS 1 μg/ml, a/b isomers given as first/second symbol, read-out: IC50 (μM), inhibition of lipopolysaccharide-induced NO secretion in macrophages
Summary of the method: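 LPS 1 μg/ml, 24 h, RAW264.7 (DMEM/10% FBS); cpds at varied concs. Supernatant NO by Griess, A548; % inhibition vs blank medium.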

[6] = tested on: human hepatic stellate cells LX-2; experiment: Anti-fibrosis activity test: inhibition of proliferation of human hepatic stellate cells LX-2 (CCK-8); details: Homo sapiens, 48 h
Summary of the method: as §1

[7] = tested on: human fibrosarcoma cells HT-1080; experiment: Anti-fibrosis activity test: inhibition of proliferation of human fibrosarcoma cells HT-1080 (CCK-8); details: Homo sapiens, HT-1080, 48 h
Summary of the method: as §1

[8] = cardiac fibroblast RAT-iCell-C002, CCK-8, 48 hours
[9] = CCK-8, 48 hours after administration
[10] = human lung fibroblasts HFL1, CCK-8, 48 hours
[11] = human embryonic lung fibroblast IMR-90, CCK-8, 48 hours
[12] = human dermal fibroblasts CCC-ESF-1, CCK-8, 48 hours
[13] = human hepatic stellate cells LX-2, CCK-8, 48 hours
[14] = human fibrosarcoma cells HT-1080, CCK-8, 48 hours

SMILES	IC50 [1, 8] [mM]	IC50 (BHK-21 cells; [9]) [mM]	IC50 (NF-κB) [µM]	IC50 [2, 10] [mM]	IC50 [3, 11] [mM]	IC50 [4, 12] [mM]	IC50 [5] [µM]	IC50 [6, 13] [mM]	IC50 [7, 14] [mM]	IC50 ([1]; RAT-iCell-C002 cells, CCK-8) [mM]	IC50 (BHK-21 cells; 48 h, CCK-8) [mM]	IC50 ([2]; HFL1 cells, 48 h, CCK-8) [mM]	IC50 ([3]; Homo sapiens, IMR-90 cells, 48 h, CCK-8) [mM]	IC50 ([4]; Homo sapiens, CCC-ESF-1 cells, 48 h, CCK-8) [mM]	IC50 ([6]; LX-2, 48 h, LX-2 cells, CCK-8) [mM]	IC50 ([7]; HT-1080 cells, 48 h, CCK-8) [mM]
COc1cccc(Cn2c3c(c(=O)c4ccccc42)C(=O)n2cccc2-3)c1 [Compound 610a, 4-(3-Methoxybenzyl)-9H-pyrrolizino[1,2-b]quinoline-9,10(4H)-dione]	0.05 to 5	0.05 to 5	1 to 10	0.05 to 5	0.05 to 5	0.05 to 5	1 to 10	0.05 to 5	0.05 to 5	–	–	–	–	–	–	–
O=C1c2c(nc3cc(OC(F)(F)F)ccc3c2O)-c2cccn21 [Compound 548b, 9-hydroxy-6-trifluoromethoxy-10H-pyrrolizino[1,2-b]quinolin-10-one]	0.05 to 5	0.05 to 5	1 to 10	0.05 to 5	0.05 to 5	0.05 to 5	1 to 10	0.05 to 5	0.05 to 5	–	–	–	–	–	–	–
COc1cccc2nc3c(c(O)c12)C(=O)n1cccc1-3 [Compound 473b, 9-hydroxy-8-methoxy-10H-pyrrolizino[1,2-b]quinolin-10-one]	0.05 to 5	0.05 to 5	1 to 10	0.05 to 5	0.05 to 5	0.05 to 5	1 to 10	0.05 to 5	0.05 to 5	–	–	–	–	–	–	–
O=C1c2c(nc3ccccc3c2OCc2cccc(C(F)(F)F)c2)-c2cccn21 [Compound 598b, 9-((3-(trifluoromethyl)benzyl)oxy)-10H-pyrrolizino[1,2-b]quinolin-10-one]	0.05 to 5	0.05 to 5	1 to 10	0.05 to 5	0.05 to 5	0.05 to 5	1 to 10	0.05 to 5	0.05 to 5	–	–	–	–	–	–	–
CC(C)(C)c1ccc(COc2c3c(nc4ccccc24)-c2cccn2C3=O)cc1 [Compound 605b, 9-((4-(tert-butyl)benzyl)oxy)-10H-pyrrolizino[1,2-b]quinolin-10-one]	0.05 to 5	0.05 to 5	1 to 10	0.05 to 5	0.05 to 5	0.05 to 5	1 to 10	0.05 to 5	0.05 to 5	–	–	–	–	–	–	–
Cc1cc(C)c2nc3c(c(O)c2c1)C(=O)n1cccc1-3 [Compound 750b, 9-hydroxy-5,7-dimethyl-10H-pyrrolizino[1,2-b]quinolin-10-one]	–	–	1 to 10	–	–	–	1 to 10	–	–	0.05 to 5	0.05 to 5	0.05 to 5	0.05 to 5	0.05 to 5	0.05 to 5	0.05 to 5
O=C1c2c(nc3ccccc3c2OCC(F)(F)F)-c2cccn21 [Compound 657b, 9-(2,2,2-trifluoroethoxy)-10H-pyrrolizino[1,2-b]quinolin-10-one]	0.05 to 5	0.05 to 5	10 to 50	0.05 to 5	0.05 to 5	0.05 to 5	1 to 10	0.05 to 5	0.05 to 5	–	–	–	–	–	–	–
O=C(O)Cn1c2c(c(=O)c3ccccc31)C(=O)n1cccc1-2 [Compound 100a, 2-(9,10-Dioxo-9H-pyrrolizino[1,2-b]quinolin-4(10H)-yl)acetic acid]	0.05 to 5	0.05 to 5	1 to 10	< 0.05	0.05 to 5	0.05 to 5	0.1 to 1	0.05 to 5	0.05 to 5	–	–	–	–	–	–	–
O=C1c2c(n(Cc3cccc(F)c3)c3ccccc3c2=O)-c2cccn21 [Compound 595a, 4-(3-Fluorobenzyl)-9H-pyrrolizino[1,2-b]quinoline-9,10(4H)-dione]	0.05 to 5	0.05 to 5	1 to 10	0.05 to 5	0.05 to 5	< 0.05	0.1 to 1	0.05 to 5	0.05 to 5	–	–	–	–	–	–	–
